pEC50, pIC50, pKi: −log10 of the molar value.
Assays:
[1] = target: T1, Tyrosyl-DNA phosphodiesterase 1 (Homo sapiens, UniProt Q9NUW8); assay: Inhibition of recombinant TDP1 (unknown origin) using 5'-32P-labeled N14Y DNA substrate incubated for 20 mins by PAGE analysis
[2] = target: T2, Tyrosyl-DNA phosphodiesterase 2 (Homo sapiens, UniProt O95551); assay: Inhibition of human N-terminal His-tagged TDP2 expressed in Escherichia coli JM109(DE3) using 5'-Y-TCCGTTGAAGCCTGCTTT-3' as substrate incubated for 60 mins by microplate reader analysis
T2 sequence (O95551 whole entry): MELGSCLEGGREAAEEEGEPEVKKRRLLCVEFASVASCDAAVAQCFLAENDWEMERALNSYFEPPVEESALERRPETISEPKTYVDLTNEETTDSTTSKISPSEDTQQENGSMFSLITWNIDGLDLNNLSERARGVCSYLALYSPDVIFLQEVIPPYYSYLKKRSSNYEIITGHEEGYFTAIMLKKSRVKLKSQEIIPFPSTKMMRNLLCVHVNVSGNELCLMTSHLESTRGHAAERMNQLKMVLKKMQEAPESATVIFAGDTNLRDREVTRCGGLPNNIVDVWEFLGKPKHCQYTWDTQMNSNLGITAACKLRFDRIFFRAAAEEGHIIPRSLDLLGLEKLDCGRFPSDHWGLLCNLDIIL

[3] = target: T1, Tyrosyl-DNA phosphodiesterase 1; assay: Inhibition of human N-terminal His-tagged TDP1 expressed in Escherichia coli BL21 using [32P]-D14Y duplex DNA as substrate incubated for 20 mins by PAGE analysis
[4] = target: T1, Tyrosyl-DNA phosphodiesterase 1; assay: Inhibition of recombinant TDP1 (unknown origin) using 5'-32P-labeled N14Y DNA substrate incubated for 15 mins by PAGE analysis
[5] = target: T2, Tyrosyl-DNA phosphodiesterase 2; assay: Inhibition of human recombinant TDP2 using 18-mer single stranded 5'-32P-labeled cordycepin DNA substrate incubated for 15 mins by PAGE analysis
[6] = Inhibition of human Jurkat cell membrane-derived protein tyrosine phosphatase using o-phospho-L-tyrosine as substrate incubated for 15 mins by malachite green staining based assay
[7] = target: T1, Tyrosyl-DNA phosphodiesterase 1; assay: Inhibition of TDP1 (unknown origin) using 14-mer duplex oligonucleotide [32P]-D14Y as substrate incubated for 20 mins by PAGE analysis
[8] = Non-competitive inhibition of human 7721 cell membrane-derived phospholipase D using phosphatidylcholine as substrate preincubated for 10 mins followed by substrate addition in presence of PIP2 by Cornish-Bowden plot analysis
[9] = target: T2, Tyrosyl-DNA phosphodiesterase 2; assay: Inhibition of TDP2 (unknown origin)
DNA topoisomerase 1 = target: T3, DNA topoisomerase 1 (Homo sapiens, UniProt P11387); assay: Inhibition of topoisomerase-1 (unknown origin) using pBR 322 DNA as substrate
T3 sequence (P11387 whole entry): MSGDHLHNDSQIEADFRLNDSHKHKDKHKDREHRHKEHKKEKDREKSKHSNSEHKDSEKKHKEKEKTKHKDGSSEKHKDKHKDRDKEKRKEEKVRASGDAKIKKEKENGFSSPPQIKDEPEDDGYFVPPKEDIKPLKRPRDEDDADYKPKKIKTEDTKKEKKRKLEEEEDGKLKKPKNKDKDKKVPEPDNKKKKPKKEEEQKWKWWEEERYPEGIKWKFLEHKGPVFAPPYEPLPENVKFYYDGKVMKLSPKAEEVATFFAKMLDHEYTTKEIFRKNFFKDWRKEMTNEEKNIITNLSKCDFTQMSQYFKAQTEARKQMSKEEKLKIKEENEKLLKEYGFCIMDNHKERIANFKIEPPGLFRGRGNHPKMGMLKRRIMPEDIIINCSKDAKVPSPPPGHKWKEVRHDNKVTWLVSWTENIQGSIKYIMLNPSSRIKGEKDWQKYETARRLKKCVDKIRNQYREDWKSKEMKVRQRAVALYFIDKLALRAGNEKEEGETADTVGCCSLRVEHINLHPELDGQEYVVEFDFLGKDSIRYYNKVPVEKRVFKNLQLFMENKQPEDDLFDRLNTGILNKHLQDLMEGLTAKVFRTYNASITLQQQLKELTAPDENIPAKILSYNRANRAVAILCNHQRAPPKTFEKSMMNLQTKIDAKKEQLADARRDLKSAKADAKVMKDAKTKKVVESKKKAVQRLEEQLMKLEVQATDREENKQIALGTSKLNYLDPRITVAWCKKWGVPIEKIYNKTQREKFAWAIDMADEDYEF

[10] = target: T1, Tyrosyl-DNA phosphodiesterase 1; assay: Inhibition of N-terminal His-tagged TDP1 (unknown origin) expressed in Escherichia coli BL21(DE3) using 5'-6-FAM-AGGATCTAAAAGACTT-3BHQ-3' as substrate preincubated for 30 mins followed by substrate addition by fluorescence assay
MCF7 = assay: Growth inhibition of human MCF7 cells at 10 uM after 96 hrs in presence of camptothecin by MTT assay relative to camptothecin alone; type: functional; conditions: MCF7, 96 h, read-out: GI

T1 sequence (Q9NUW8 whole entry): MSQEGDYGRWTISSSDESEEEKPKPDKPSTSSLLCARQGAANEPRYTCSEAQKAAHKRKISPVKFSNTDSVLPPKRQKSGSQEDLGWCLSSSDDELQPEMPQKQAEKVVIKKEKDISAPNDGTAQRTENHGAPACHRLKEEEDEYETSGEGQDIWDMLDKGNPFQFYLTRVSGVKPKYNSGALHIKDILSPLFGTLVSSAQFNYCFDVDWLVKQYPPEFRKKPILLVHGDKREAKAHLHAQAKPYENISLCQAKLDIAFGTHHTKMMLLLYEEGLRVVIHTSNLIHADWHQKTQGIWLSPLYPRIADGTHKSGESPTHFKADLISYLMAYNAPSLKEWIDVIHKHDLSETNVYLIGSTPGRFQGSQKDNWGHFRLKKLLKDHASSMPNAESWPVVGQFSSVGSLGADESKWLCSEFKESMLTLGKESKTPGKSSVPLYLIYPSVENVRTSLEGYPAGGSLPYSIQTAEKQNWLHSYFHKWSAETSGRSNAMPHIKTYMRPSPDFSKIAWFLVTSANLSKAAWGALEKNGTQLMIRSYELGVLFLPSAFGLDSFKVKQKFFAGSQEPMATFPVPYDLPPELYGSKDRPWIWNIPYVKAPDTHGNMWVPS

**Q.** With `Cc1ccc(C(=O)Nc2ccc(S(=O)(=O)O)c3cc(S(=O)(=O)O)cc(S(=O)(=O)O)c23)cc1NC(=O)c1cccc(NC(=O)Nc2cccc(C(=O)Nc3cc(C(=O)Nc4ccc(S(=O)(=O)O)c5cc(S(=O)(=O)O)cc(S(=O)(=O)O)c45)ccc3C)c2)c1` [SURAMIN] as the molecule, how does the pIC50 [1] read?
**A.** Its pIC50 is 5.30.

**Q.** And the pEC50 [2]?
**A.** Its pEC50 is 4.62.

**Q.** With `COc1ccc(C[C@H](N)C(=O)N[C@H]2[C@@H](O)[C@H](n3cnc4c(N(C)C)ncnc43)O[C@@H]2CO)cc1` [PUROMYCIN] as the molecule, how does the pIC50 [3] read?
**A.** The pIC50 was 1.74.

**Q.** With `COc1c(N2CCN(CNc3ccc(S(=O)(=O)Nc4nc(C)cc(C)n4)cc3)C(C)C2)c(F)cc2c(=O)c(C(=O)O)cn(C3CC3)c12` (centres undefined) as the molecule, how does the pIC50 [4] read?
**A.** Its pIC50 is 7.66.

**Q.** With `COc1ccc2c(c1)Oc1nc(-c3ccc(C)cc3)nc(SCC(=O)Nc3ccc(C(=O)O)cc3)c1C2` as the molecule, how does the pIC50 [4] read?
**A.** Its pIC50 is 4.92.

**Q.** What does the source list for `O=C(O)c1ccc(-c2ccc(/C=C3/NC(=O)N(Cc4ccccc4F)C3=O)o2)cc1`?
**A.** pIC50 [4]: 5.11; pIC50 [5]: 4.49

**Q.** With `Cc1cc2nc3c(=O)[nH]c(=O)nc-3n(C)c2cc1C=O` as the molecule, how does the pEC50 [2] read?
**A.** Its pEC50 is 5.46.

**Q.** With `CN(N=O)c1cc(O)ccc1O` [DEPHOSTATIN] as the molecule, how does the pIC50 [6] read?
**A.** Its pIC50 is 5.11.

**Q.** With `CCN[C@@H]1C[C@H](N)[C@@H](O[C@H]2OC(CN)=CC[C@H]2N)[C@H](O)[C@H]1O[C@H]1OC[C@](C)(O)[C@H](NC)[C@H]1O` [NETILMICIN] as the molecule, how does the pIC50 [7] read?
**A.** Its pIC50 is 2.10.

**Q.** With `NCC1O[C@H](O[C@H]2[C@@H](O)[C@H](O[C@@H]3[C@@H](O)[C@H](N)C[C@H](N)[C@H]3O[C@H]3O[C@H](CN)[C@@H](O)[C@H](O)[C@H]3N)O[C@@H]2CO)[C@H](N)[C@@H](O)[C@@H]1O` (some centres undefined) as the molecule, how does the pKi [8] read?
**A.** The pKi was 2.06.

**Q.** With `NC1=CC(N)=C2C=CC(=O)N=C2C1=O` as the molecule, how does the pIC50 [9] read?
**A.** Its pIC50 is 5.70.

**Q.** With `O=C1c2c(c3c4cccc(O)c4n([C@@H]4O[C@H](CO)[C@@H](O)[C@H](O)[C@H]4O)c3c3[nH]c4c(O)cccc4c23)C(=O)N1NC(CO)CO` as the molecule, how does the pEC50 (DNA topoisomerase 1) read?
**A.** The pEC50 was 6.24.

**Q.** With `C=C(NC(=O)C(=C)NC(=O)c1csc(C2=N[C@@H]3c4csc(n4)[C@H]4NC(=O)c5csc(n5)[C@H]([C@](C)(O)[C@@H](C)O)NC(=O)[C@H]5CSC(=N5)/C(=C/C)NC(=O)[C@H]([C@@H](C)O)NC(=O)c5csc(n5)[C@]3(CC2)NC(=O)[C@H](C)NC(=O)C(=C)NC(=O)[C@H](C)NC(=O)[C@H]([C@@H](C)CC)N[C@@H]2C=Cc3c([C@H](C)O)cc(nc3[C@H]2O)C(=O)O[C@@H]4C)n1)C(N)=O` [THIOSTREPTON] as the molecule, how does the pIC50 [3] read?
**A.** Its pIC50 is 2.74.

**Q.** With `NC[C@@H]1O[C@H](O[C@H]2[C@@H](O)[C@H](O[C@@H]3[C@@H](O)[C@H](N)C[C@H](N)[C@H]3O[C@H]3O[C@H](CO)[C@@H](O)C[C@H]3N)O[C@@H]2CO)[C@H](N)[C@@H](O)[C@@H]1O[C@H]1O[C@H](CO)[C@@H](O)[C@H](O)[C@@H]1O` [LIVIDOMYCIN] as the molecule, how does the pIC50 [7] read?
**A.** The pIC50 was 1.52.

**Q.** With `O=C1NC(=S)NC(=O)C1=Cc1ccco1` as the molecule, how does the pIC50 [10] read?
**A.** Its pIC50 is 6.15.

**Q.** And the inhibition of growth at 10 µM (MCF7)?
**A.** The inhibition of growth at 10 µM was 25%.

**Q.** With `CCC[C@@H]1C[C@@H](C(=O)N[C@@H]([C@H]2O[C@H](SC)[C@H](OP(=O)(O)O)[C@@H](O)[C@H]2O)[C@H](C)Cl)N(C)C1` [CLINDAMYCIN PHOSPHATE] as the molecule, how does the pIC50 [3] read?
**A.** The pIC50 was 2.04.

**Q.** With `CCn1cc(C(=O)O)c(=O)c2cc(F)c(N3CCN(CNc4ccc(S(=O)(=O)Nc5nc(C)cc(C)n5)cc4)CC3)cc21` as the molecule, how does the pIC50 [4] read?
**A.** The pIC50 was 8.30.

Reference: ChEMBL document CHEMBL4428133, “Tyrosyl-DNA phosphodiesterase inhibitors: Progress and potential” (Bioorg Med Chem, 2016)
